The values below come from US8450266B2 (Ipsen Pharma S.A.S., priority 2008, dated 2013).

Data set [1] is described as follows: Human plasma half-life assay (LC-MS). It counts as in vitro ADME. The following applies: incubated at 37° C., read-out: Human Plasma T½ (converted). The method, then: (§1) B. Human and Rat Plasma Half-Life Assay
(§2) 50 μl, was removed at various times, like at 0, 1, 2, 3, 4, 8, 24, 32, 48, 56, 72 hours, mixed with 5 μL formic acid and 150 μL acetonitrile in a microcentrifuge tube, vertexed, and centrifuged for 10 minutes at 10K rpm. The supernatant was transferred to an injection vial and analyzed by LC-MS. The LC-MS system consisted of an API4000 mass spectrometer with an ESI probe. Positive ion mode and full scan detection were used. HPLC separation was carried out on a Luna 3μ C8 (2), 2×30 mm column with a gradient from 90% A to 90% B in 10 minutes at a flow rate of 0.3 ml/min. Buffer A was 1% formic acid in water and buffer B was 1% formic acid acetonitrile.

A short description of data set [2]: Rat plasma half-life assay (LC-MS). It counts as in vitro ADME. The following applies: incubated at 37° C., read-out: Rat Plasma T½ (converted). The method, then:
as §1, §2

Where a SMILES comes first, the peptide text is derived from it. [ ]: non-standard residue; d: D form. The star is where a group is joined. Decanoyl = CCCCCCCCCC(=O)*; Ac6c = NC1(C(=O)O)CCCCC1; Orn = NCCC[C@H](N)C(=O)O; X1 = CCCN1C(=O)CC(*)C1=O; Hexanoyl = CCCCCC(=O)*

Regarding `CCCCCC(=O)NCCC[C@H](NC(=O)[C@H](CCCCN)NC(=O)[C@H](CCC(N)=O)NC(=O)[C@H](C)NC(=O)[C@H](CC(C)C)NC(=O)[C@H](CC(C)C)NC(=O)[C@H](Cc1c[nH]c2ccccc12)NC(=O)[C@H](CC(N)=O)NC(=O)[C@@H](NC(=O)[C@H](Cc1ccccc1)NC(=O)[C@H](CC(=O)O)NC(=O)[C@H](CCC(N)=O)NC(=O)[C@H](CCC(N)=O)NC(=O)[C@H](Cc1c[nH]cn1)NC(=O)[C@@H](NC(=O)[C@H](CCCCN)NC(=O)[C@H](CC(=O)O)NC(=O)[C@H](CCSC)NC(=O)[C@H](C)NC(=O)[C@@H](NC(=O)[C@H](CO)NC(=O)[C@H](Cc1ccc(O)cc1)NC(=O)[C@H](CC(=O)O)NC(=O)[C@H](CO)NC(=O)C1(NC(=O)CCCCC)CCCCC1)[C@@H](C)CC)[C@@H](C)CC)C(C)C)C(=O)N[C@@H](CCCCN)C(=O)N[C@@H](CCCCN)C(=O)N[C@@H](CC(N)=O)C(=O)N[C@@H](CC(=O)O)C(=O)N[C@@H](Cc1c[nH]c2ccccc12)C(=O)N[C@@H](CCCCN)C(=O)N[C@@H](Cc1c[nH]cn1)C(=O)N[C@@H](CC(N)=O)C(=O)N[C@H](C(=O)N[C@H](C(=O)N[C@@H](CCC(N)=O)C(=O)O)[C@@H](C)O)[C@@H](C)CC` [Example 18, [CH3-(CH2)4-C(O)-A6c^7, Orn^31(N-C(O)-(CH2)4-CH3)]hGIP(7-42)-OH] (Hexanoyl-[Ac6c]SDYSIAMDKIHQQDFVNWLLAQK[Orn](Hexanoyl)KKNDWKHNITQ-OH), the results for the half-life at 0.1 mg/ml in data set [1] and in data set [2] were 13.8 h and 6.3 h, respectively.
Turning to `CCCCCC(=O)NCCC[C@H](NC(=O)[C@H](CCCCN)NC(=O)[C@H](CCC(N)=O)NC(=O)[C@H](C)NC(=O)[C@H](CC(C)C)NC(=O)[C@H](CC(C)C)NC(=O)[C@H](Cc1c[nH]c2ccccc12)NC(=O)[C@H](CC(N)=O)NC(=O)[C@@H](NC(=O)[C@H](Cc1ccccc1)NC(=O)[C@H](CC(=O)O)NC(=O)[C@H](CCC(N)=O)NC(=O)[C@H](CCC(N)=O)NC(=O)[C@H](Cc1c[nH]cn1)NC(=O)[C@@H](NC(=O)[C@H](CCCCN)NC(=O)[C@H](CC(=O)O)NC(=O)[C@H](CCSC)NC(=O)[C@H](C)NC(=O)[C@@H](NC(=O)[C@H](CO)NC(=O)[C@H](Cc1ccc(O)cc1)NC(=O)[C@H](CC(=O)O)NC(=O)[C@H](CO)NC(=O)C1(N)CCCCC1)[C@@H](C)CC)[C@@H](C)CC)C(C)C)C(=O)N[C@@H](CCCCN)C(=O)N[C@@H](CCCCN)C(=O)N[C@@H](CC(N)=O)C(=O)N[C@@H](CC(=O)O)C(=O)N[C@@H](Cc1c[nH]c2ccccc12)C(=O)N[C@@H](CCCCN)C(=O)N[C@@H](Cc1c[nH]cn1)C(=O)N[C@@H](CC(N)=O)C(=O)N[C@H](C(=O)N[C@H](C(=O)N[C@@H](CCC(N)=O)C(=O)O)[C@@H](C)O)[C@@H](C)CC` [Example 17, [A6c^7, Orn^31(N-C(O)-(CH2)4-CH3)]hGIP(7-42)-OH] (H-[Ac6c]SDYSIAMDKIHQQDFVNWLLAQK[Orn](Hexanoyl)KKNDWKHNITQ-OH), the results for the half-life at 0.1 mg/ml in data set [1] and in data set [2] were greater than 50 h and 9.4 h, respectively.
As to `CCCCCCCCCC(=O)NCCC[C@H](NC(=O)[C@H](CCCCN)NC(=O)[C@H](CCC(N)=O)NC(=O)[C@H](C)NC(=O)[C@H](CC(C)C)NC(=O)[C@H](CC(C)C)NC(=O)[C@H](Cc1c[nH]c2ccccc12)NC(=O)[C@H](CC(N)=O)NC(=O)[C@@H](NC(=O)[C@H](Cc1ccccc1)NC(=O)[C@H](CC(=O)O)NC(=O)[C@H](CCC(N)=O)NC(=O)[C@H](CCC(N)=O)NC(=O)[C@H](Cc1c[nH]cn1)NC(=O)[C@@H](NC(=O)[C@H](CCCCN)NC(=O)[C@H](CC(=O)O)NC(=O)[C@H](CCSC)NC(=O)[C@H](C)NC(=O)[C@@H](NC(=O)[C@H](CO)NC(=O)[C@H](Cc1ccc(O)cc1)NC(=O)[C@H](CC(=O)O)NC(=O)[C@H](CO)NC(=O)C1(NC(C)=O)CCCCC1)[C@@H](C)CC)[C@@H](C)CC)C(C)C)C(=O)N[C@@H](CCCCN)C(=O)N[C@@H](CCCCN)C(=O)N[C@@H](CC(N)=O)C(=O)N[C@@H](CC(=O)O)C(=O)N[C@@H](Cc1c[nH]c2ccccc12)C(=O)N[C@@H](CCCCN)C(=O)N[C@@H](Cc1c[nH]cn1)C(=O)N[C@@H](CC(N)=O)C(=O)N[C@H](C(=O)N[C@H](C(=O)N[C@@H](CCC(N)=O)C(=O)O)[C@@H](C)O)[C@@H](C)CC` [Example 13, [Ac-A6c^7, Orn^31(N-C(O)-(CH2)8-CH3)]hGIP(7-42)-OH] (Ac-[Ac6c]SDYSIAMDKIHQQDFVNWLLAQK[Orn](Decanoyl)KKNDWKHNITQ-OH), the half-life at 0.1 mg/ml in data set [1] is 17.8 h; in data set [2], 19 h.
`CCCN1C(=O)CC(SC[C@H](NC(=O)[C@H](CCCCN)NC(=O)[C@H](CCC(N)=O)NC(=O)[C@H](C)NC(=O)[C@H](CC(C)C)NC(=O)[C@H](CC(C)C)NC(=O)[C@H](Cc2c[nH]c3ccccc23)NC(=O)[C@H](CC(N)=O)NC(=O)[C@@H](NC(=O)[C@H](Cc2ccccc2)NC(=O)[C@H](CC(=O)O)NC(=O)[C@H](CCC(N)=O)NC(=O)[C@H](CCC(N)=O)NC(=O)[C@H](Cc2c[nH]cn2)NC(=O)[C@@H](NC(=O)[C@H](CCCCN)NC(=O)[C@H](CC(=O)O)NC(=O)[C@H](CCSC)NC(=O)[C@H](C)NC(=O)[C@@H](NC(=O)[C@H](CO)NC(=O)[C@H](Cc2ccc(O)cc2)NC(=O)[C@H](CC(=O)O)NC(=O)[C@H](CO)NC(=O)C2(NC(C)=O)CCCCC2)[C@@H](C)CC)[C@@H](C)CC)C(C)C)C(=O)N[C@@H](CCCCN)C(=O)N[C@@H](CCCCN)C(=O)N[C@@H](CC(N)=O)C(=O)N[C@@H](CC(=O)O)C(=O)N[C@@H](Cc2c[nH]c3ccccc23)C(=O)N[C@@H](CCCCN)C(=O)N[C@@H](Cc2c[nH]cn2)C(=O)N[C@@H](CC(N)=O)C(=O)N[C@H](C(=O)N[C@H](C(=O)N[C@@H](CCC(N)=O)C(=O)O)[C@@H](C)O)[C@@H](C)CC)C1=O` (some centres unmarked) [Example 10, [Ac-A6c^7, Cys(Psu)^31]hGIP(7-42)-OH] (Ac-[Ac6c]SDYSIAMDKIHQQDFVNWLLAQKC(X1)KKNDWKHNITQ-OH): the half-life at 0.1 mg/mL in data set [1] is 8 h; in data set [2], 2.6 h.
On to `CCCCCC(=O)NCCC[C@H](NC(=O)[C@H](CCCCN)NC(=O)[C@H](CCC(N)=O)NC(=O)[C@H](C)NC(=O)[C@H](CC(C)C)NC(=O)[C@H](CC(C)C)NC(=O)[C@H](Cc1c[nH]c2ccccc12)NC(=O)[C@H](CC(N)=O)NC(=O)[C@@H](NC(=O)[C@H](Cc1ccccc1)NC(=O)[C@H](CC(=O)O)NC(=O)[C@H](CCC(N)=O)NC(=O)[C@H](CCC(N)=O)NC(=O)[C@H](Cc1c[nH]cn1)NC(=O)[C@@H](NC(=O)[C@H](CCCCN)NC(=O)[C@H](CC(=O)O)NC(=O)[C@H](CCSC)NC(=O)[C@H](C)NC(=O)[C@@H](NC(=O)[C@H](CO)NC(=O)[C@H](Cc1ccc(O)cc1)NC(=O)[C@H](CC(=O)O)NC(=O)[C@H](CO)NC(=O)C1(NC(C)=O)CCCCC1)[C@@H](C)CC)[C@@H](C)CC)C(C)C)C(=O)N[C@@H](CCCCN)C(=O)N[C@@H](CCCCN)C(=O)N[C@@H](CC(N)=O)C(=O)N[C@@H](CC(=O)O)C(=O)N[C@@H](Cc1c[nH]c2ccccc12)C(=O)N[C@@H](CCCCN)C(=O)N[C@@H](Cc1c[nH]cn1)C(=O)N[C@@H](CC(N)=O)C(=O)N[C@H](C(=O)N[C@H](C(=O)N[C@@H](CCC(N)=O)C(=O)O)[C@@H](C)O)[C@@H](C)CC` [Example 16, [Ac-A6c^7, Orn^31(N-C(O)-(CH2)4-CH3)]hGIP(7-42)-OH] (Ac-[Ac6c]SDYSIAMDKIHQQDFVNWLLAQK[Orn](Hexanoyl)KKNDWKHNITQ-OH), for which the results for the half-life at 0.1 mg/ml in data set [1] and in data set [2] were greater than 50 h and 30 h, respectively.
Regarding `CCCC[C@H](NC(=O)[C@H](C)NC(=O)[C@@H](NC(=O)[C@H](CO)NC(=O)[C@H](Cc1ccc(O)cc1)NC(=O)[C@H](CC(=O)O)NC(=O)[C@H](CO)NC(=O)C1(NC(=O)[C@@H](N)Cc2ccccc2)CCCC1)[C@@H](C)CC)C(=O)N[C@@H](CC(=O)O)C(=O)N[C@@H](CCCCN)C(=O)N[C@H](C(=O)N[C@@H](Cc1c[nH]cn1)C(=O)N[C@@H](CCC(N)=O)C(=O)N[C@@H](CCC(N)=O)C(=O)N[C@@H](CC(=O)O)C(=O)N[C@@H](Cc1ccccc1)C(=O)N[C@H](C(=O)N[C@@H](CC(N)=O)C(=O)N[C@@H](Cc1c[nH]c2ccccc12)C(=O)N[C@@H](CC(C)C)C(=O)N[C@@H](CC(C)C)C(=O)N[C@@H](C)C(=O)N[C@@H](CCC(N)=O)C(=O)N[C@@H](CCCCN)C(N)=O)C(C)C)[C@@H](C)CC` [Example 35, (A5c^7, Nle^14)hGIP(6-30)-NH2] (HELM PEPTIDE1{F.[O=C(C1(N[*:1])CCCC1)[*:2]].S.D.Y.S.I.A.[Nle].D.K.I.H.Q.Q.D.F.V.N.W.L.L.A.Q.K.[am]}$$$$V2.0), the half-life at 0.1 mg/mL in data set [1] is 16.5 h; in data set [2] it was 23 h.
For `CC[C@H](C)[C@H](NC(=O)[C@H](CO)NC(=O)[C@H](Cc1ccc(O)cc1)NC(=O)[C@H](CC(=O)O)NC(=O)[C@H](CO)NC(=O)C1(NC(C)=O)CCCCC1)C(=O)N[C@@H](C)C(=O)N[C@@H](CCSC)C(=O)N[C@@H](CC(=O)O)C(=O)N[C@@H](CCCCN)C(=O)N[C@H](C(=O)N[C@@H](Cc1c[nH]cn1)C(=O)N[C@@H](CCC(N)=O)C(=O)N[C@@H](CCC(N)=O)C(=O)N[C@@H](CC(=O)O)C(=O)N[C@@H](Cc1ccccc1)C(=O)N[C@H](C(=O)N[C@@H](CC(N)=O)C(=O)N[C@@H](Cc1c[nH]c2ccccc12)C(=O)N[C@@H](CC(C)C)C(=O)N[C@@H](CC(C)C)C(=O)N[C@@H](C)C(=O)N[C@@H](CCC(N)=O)C(=O)N[C@@H](CCCCN)C(=O)NCC(=O)N[C@@H](CCCCN)C(=O)N[C@@H](CCCCN)C(=O)N[C@@H](CC(N)=O)C(=O)N[C@@H](CC(=O)O)C(=O)N[C@@H](Cc1c[nH]c2ccccc12)C(=O)N[C@@H](CCCCN)C(=O)N[C@@H](Cc1c[nH]cn1)C(=O)N[C@@H](CC(N)=O)C(=O)N[C@H](C(=O)N[C@H](C(=O)N[C@@H](CCC(N)=O)C(=O)O)[C@@H](C)O)[C@@H](C)CC)C(C)C)[C@@H](C)CC` [Example 1, (Ac-A6c^7)hGIP(7-42)-OH], the half-life at 0.1 mg/ml was greater than 72 h in data set [1] and 11 h in data set [2].
